Laboratory results as given in EP0085866A1, “Derivatives of benzo-1,2-thiazine-1,1-dioxide, a process for their preparation and pharmaceutical compositions containing the same” (priority 1982, dated 1983).
Like-named read-outs stand apart in the source and are kept apart here.

What was measured:
[1] = Acute toxicity by single oral administration; type: in vivo; details: mouse, in vivo
Protocol: (§1) The toxicity by single administration has been determined by oral route in male mice IVA:NMRI (SPF), fasting, with water ad libitum 18 hours before the experiment. The substances under exam were suspended in 1% carboxymethylcellulose.

[2] = system: oedema induced in the rat's paw by carrageenin; experiment: Antiinflammatory activity in the test of plantar edema by carrageenin; type: in vivo, Crl: CD(SD) male rats; details: for ED30: Rattus norvegicus, po; for antiinflammatory activity (in words): comparison with piroxicam, rat
Protocol: Crl: CD(SD) male rats, weighing 170-205 g, previously subjected to an acclimation period of at least one week through housing in environment with co.stant thermohygrometric conditions and fa sting with water ad libitum 18 hours before the start of the test, have been distributed "at ran dom" in groups of 5-6 animals each (4 groups cor responding to 4 different dose levels for each compound). A group of control animals has been treated only with the vehicle. […] Soc. Exp. Biol. Med. 111, 544, 1962). The volume of the treated paw has been measured by means of a water-mercury pletismometer according to Leuce P., Arch. Int. Pharmacodyn. 136, 237, 1962) immediately before and at different […] injection of the phlogogenic agent. The results have been expressed as ED30 values calculated on the logarithmic regression straight lines of the percent dose/inhibition of the oedema development, in turn determined from the ratio between the mean AUC value (area under the curve representing the development of the paw volume in the time) in the different treated animals groups and the respective control groups.

[3] = system: gastric mucosa; experiment: Gastrolesive activity (macroscopic control of the gastric mucosa); type: in vivo, Crl: CD(SD) male rats; details: for Therapeutic index UD3/ED30 / Gastrolesive activity UD3: oral route, exp. session I and II (r4-r7); for Therapeutic index UD3/ED30: rat; for Gastrolesive activity UD3: dose expected to give gastric lesion of total extension of 3 mm, 7 hours after administration; for improvement of tolerability (in words): versus parent compound piroxicam
Text: On the ground of such lines the calculation of UD3 values, that is a dose whereby a gastric lesion of the total extension of 3 mm is expected, has been performed.

[4] = system: male mice IVA:NMRI (SPF); experiment: Acute toxicity by single oral administration; type: in vivo; details: versus piroxicam
Protocol: as §1

[5] = system: plantar oedema by nystatin in the rat; experiment: Plantar oedema by nystatin; type: in vivo; details: on molar basis, times as active as piroxicam
Text: (§2) In other tests of direct comparison between piro xicam and CHF 1021, the latter confirmed its anti inflammatory activity, along with a good analgesic and antipiretic activity.

[6] = system: erythema by U.V. in the guinea pig; experiment: Erythema by U.V.; type: in vivo; details: on molar basis, times as active as piroxicam
Text: as §2

[7] = system: writhing test by phenylquinone in the mouse; experiment: Writhing test by phenylquinone; type: in vivo; details: on molar basis, times as active as piroxicam
Text: as §2

[8] = system: fever by beer's yeast; experiment: Fever by beer's yeast; type: in vivo, reat; details: on molar basis, times as active as piroxicam
Text: as §2

[9] = system: arthritis by adjuvant in the rat; experiment: Arthritis by adjuvant; type: in vivo; details: direct comparison with piroxicam
Text: as §2

[10] = Preliminary clinical data; type: in vivo
[11] = 1 hour before carrageenin, from inhibition of oedema AUC, exp. session I and II (r4-r7)
[12] = single administration, oral route, fasting male mice, suspended in 1% carboxymethylcellulose, interpolation on Probit paper, read-out: Approx. LD50

Row | Structure (SMILES) | LD50 ([1]; po) [mg/kg] | ED30 [2, 11] [µmol/kg] | antiinflammatory activity (in words) ([2]; oral route) | Therapeutic index UD3/ED30 [3] | Gastrolesive activity UD3 [3] [µmol/kg] | ulcerogenic potency ratio ([3]; ratio to piroxicam taken as 1) | improvement of tolerability (in words) [3] | LD50 [1, 12] [mg/kg] | Antiinflammatory activity ED30 ([2]; oral route, 1 hour before carrageenin, from inhibition of oedema AUC, exp. session I and II (r4-r7)) [µmol/kg] | acute toxicity, lower in comparison to the reference compound [4] | ulcerogenic activity, times lower in comparison to the reference compound ([3]; versus piroxicam) | potency ratio (ratio between ED50 values) [5] | potency ratio (ratio between ED50 values) [6] | potency ratio (ratio between ED50 values) [7] | potency ratio (ratio between ED50 values) [8] | activity on the arthritis by adjuvant (in words) [9] | antiinflammatory activity in comparison with piroxicam (in words) [10] | incidence of side effects relative to the reference drug ([10]; fraction of that of piroxicam)
1 | CCCC(=O)OC1=C(C(=O)Nc2ccccn2)N(C)S(=O)(=O)c2ccccc21 [CHF 1115] | 880 | 5.7 | analogous or also slightly higher than the one of the parent compound | 4.2 | 23.9 | 0.88 | do not show an improvement | – | – | – | – | – | – | – | – | – | – | –
2 | CN1C(C(=O)Nc2nccs2)=C(OC(=O)C(C)(C)C)c2ccccc2S1(=O)=O [CHF 1047, 4-pivaloyloxy-2-methyl-2H-1,2-benzothiazine-3-[N-(2-thiazolyl)-carboxamide]-1,1-dioxide] | – | ~762 | very low | 0.2 | 121.2 | – | – | > 3000 | – | – | – | – | – | – | – | – | – | –
3 | CN1C(C(=O)Nc2ccccn2)=C(O)c2ccccc2S1(=O)=O [piroxicam, reference compound] | – | 7.8 | – | – | – | – | – | 345 | 9.7 | – | – | – | – | – | – | – | – | –
4 | CN1C(C(=O)Nc2ccccn2)=C(OC(=O)C(C)(C)C)c2ccccc2S1(=O)=O [CHF 1021, 4-Pivaloyloxy-2-methyl-2H-1,2-benzothiazine-3-[N-(2-pyridyl)-carboxamide]-1,1-dioxide] | – | 7.9 | comparable to the one of the reference compound | 12.3 | 97.2 | – | – | 1800 | – | about 35% | at least 10 times | 1.52 | 0.49 | 0.72 | 0.71 | almost equally active | practically equally active | about 1/3
5 | CCCCC(=O)OC1=C(C(=O)Nc2ccccn2)N(C)S(=O)(=O)c2ccccc21 [CHF 1109] | 1100 | 7 | analogous or also slightly higher than the one of the parent compound | 4.0 | 28.2 | – | do not show an improvement | – | – | – | – | – | – | – | – | – | – | –
